Test results: patent US20070117743A1, “New antitumoral compounds” (priority 2003, published 2007)
Where two headings read alike, the source gives them in different places. Where a SMILES comes first, the peptide text is derived from it. Bridges are numbered along the chain shown (N, C = ends). [ ]: non-standard residue; d: D form. The star is where a group is joined. d(aIle) = CC[C@H](C)[C@@H](N)C(=O)O; d(aThr) = C[C@@H](O)[C@@H](N)C(=O)O; Hexanoyl(5-Me) = CC(C)CCCC(=O)*; Orn = NCCC[C@H](N)C(=O)O; Dhb = C/C=C(\N)C(=O)O

How the values were obtained:
Format in all cases: cell-based, human
[1] = tested on: SK-MEL-28; assay: SRB colorimetric assay of cell growth and viability, SK-MEL-28; conditions: 48 hours exposure; for CC50: read-out: LC50 MEL-28
[2] = tested on: A-549; assay: SRB colorimetric assay of cell growth and viability, A-549; conditions: 48 hours exposure; for GI50: read-out: GI50 A-549; for CC50: read-out: LC50 A-549
[3] = tested on: HeLa; assay: SRB colorimetric assay of cell growth and viability, HeLa; conditions: 48 hours exposure; for CC50: read-out: LC50 HELA
[4] = tested on: IGROV-ET; assay: SRB colorimetric assay of cell growth and viability, IGROV-ET; conditions: 48 hours exposure; for CC50: read-out: LC50 IGROV-ET
[5] = tested on: HT-29; assay: SRB colorimetric assay of cell growth and viability, HT-29; conditions: 48 hours exposure; for GI50: read-out: GI50 HT-29; for CC50: read-out: LC50 HT-29
[6] = tested on: HeLa-APL; assay: SRB colorimetric assay of cell growth and viability, HeLa-APL; conditions: 48 hours exposure; for CC50: read-out: LC50 HELA-APL
[7] = tested on: K-562; assay: SRB colorimetric assay of cell growth and viability, K-562; conditions: 48 hours exposure; for CC50: read-out: LC50 K-562
[8] = tested on: LoVo; assay: SRB colorimetric assay of cell growth and viability, LoVo; conditions: 48 hours exposure; for CC50: read-out: LC50 LOVO
[9] = tested on: PANC-1; assay: SRB colorimetric assay of cell growth and viability, PANC-1; conditions: 48 hours exposure; for CC50: read-out: LC50 PANC-1
[10] = tested on: DU-145; assay: SRB colorimetric assay of cell growth and viability, DU-145; conditions: 48 hours exposure
[11] = tested on: LoVo-Dox; assay: SRB colorimetric assay of cell growth and viability, LoVo-Dox; conditions: 48 hours exposure; for CC50: read-out: LC50 LOVO-DOX
How it was run: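 Tumor cells are continuously exposed to sample for 48 hours, with vehicle DMSO:EtOH:PBS (0.5:0.5:99), after an 18-hour drug-free attachment period. Bound SRB, measured at 490 nm, reflects cell mass; GI, TGI and LC are derived from triplicate means.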

[12] = tested on: IGROV-1; assay: SRB colorimetric assay of cell growth and viability, IGROV-1; conditions: 48 hours exposure
[13] = tested on: SK-BR-3; assay: SRB colorimetric assay of cell growth and viability, SK-BR-3; conditions: SK-BR-3; 48 hours exposure
Text: The finality of this assay is to interrupt the growth of a “in vitro” tumor cell culture by means a continued exhibition of the cells to the sample to be testing.
This form of the assay employs 96 well cell culture microplates of 9 mm diameter (Faircloth, 1988; Mosmann, 1983). Most of the cell lines are obtained from American Type Culture Collection (ATCC) derived from different human cancer types.
Cells are maintained in RPMI 1640 10% FBS, supplemented with 0.1 g/l penicillin and 0.1 g/l streptomycin sulfate and then incubated at 37° C., 5% CO2 and 98% humidity. For the experiments, cells were harvested from subconfluent cultures using trypsin and resuspended in fresh medium before plating.
Cells are seeded in 96 well microtiter plates, at 5×10^3 cells per well in aliquots of 195 μL medium, and they are allowed to attach to the plate surface by growing in drug free medium for 18 hours. Afterward, samples are added in aliquots of 5 μL in a ranging from 10 to 10^−8 μg/mL, dissolved in DMSO:EtOH:PBS (0.5:0.5:99). After 48 hours exposure, the antitumor effect are measured by the SRB methodology: cells are fixed by adding 50 μL of cold 50% (wt/vol) trichloroacetic acid (TCA) and incubating for 60 minutes at 4° C. Plates are washed with deionized water and dried. One hundred μL of SRB solution (0.4% wt/vol in 1% acetic acid) is added to each microtiter well and incubated for 10 minutes at room temperature. Unbound SRB is removed by washing with 1% acetic acid. Plates are air dried and bound stain is solubilized with Tris buffer. Optical densities are read on a automated spectrophotometric plate reader at a single wavelength of 490 nm.
The values for mean+/− SD of data from triplicate wells are calculated. Some parameters for cellular responses can be calculated: GI=growth inhibition, TGI=total growth inhibition (cytostatic effect) and LC=cell killing (cytotoxic effect).

C/C=C1\NC(=O)[C@H](Cc2ccccc2)NC(=O)[C@@H](C(C)C)NC(=O)[C@@H]([C@@H](C)CC)NC(=O)[C@H](NC(=O)[C@H](NC(=O)[C@H](CCCN)NC(=O)[C@H]2CCCN2C(=O)[C@H](NC(=O)[C@@H](NC(=O)[C@H](CCC(=O)O)NC(=O)CCCC(C)C)C(C)C)C(C)C)[C@@H](C)CC)[C@@H](C)OC(=O)[C@H](C(C)C)NC1=O [Compound 56, [Glu^12, noD-Val^13]-KF] ({Hexanoyl(5-Me)}-EV[dV][dP][Orn][d(aIle)][d(aThr)][d(aIle)][dV]F[Dhb]V; ester 7-C)
1.95 µM: GI50 [10]
0.168 µM: GI50 [2]
0.118 µM: GI50 [9]
0.37 µM: GI50 [3]
2.22 µM: GI50 [8]
1.39 µM: GI50 [4]
2.78 µM: GI50 [12]
≥ 7.11 µM: GI50 [1] | CC50 [1] | CC50 [2] | CC50 [3] | CC50 [4] | GI50 [5] | CC50 [5] | GI50 [6] | CC50 [6] | GI50 [7] | CC50 [7] | CC50 [8] | CC50 [9] | LC50 (concentration causing 50% net cell kill) [10] | GI50 [11] | CC50 [11] | LC50 (concentration causing 50% net cell killing) [12]
7.11E−06 Molar: TGI MEL-28 [1] | TGI A-549 [2] | TGI HELA [3] | TGI IGROV-ET [4] | TGI HT-29 [5] | TGI HELA-APL [6] | TGI K-562 [7] | TGI LOVO [8] | TGI PANC-1 [9] | TGI DU-145 [10] | TGI LOVO-DOX [11] | TGI IGROV [12]

C/C=C1\NC(=O)[C@H](Cc2ccccc2)NC(=O)[C@@H](C(C)C)NC(=O)[C@@H]([C@@H](C)CC)NC(=O)[C@H](NC(=O)[C@H](NC(=O)[C@H](CCCN)NC(=O)[C@H]2CCCN2C(=O)[C@H](NC(=O)[C@@H](NC(=O)[C@H](CCCN)NC(=O)CCCC(C)C)C(C)C)C(C)C)[C@@H](C)CC)[C@@H](C)OC(=O)[C@H](C(C)C)NC1=O [Compound 57, [Orn^12, noD-Val^13]-KF] ({Hexanoyl(5-Me)}-[Orn]V[dV][dP][Orn][d(aIle)][d(aThr)][d(aIle)][dV]F[Dhb]V; ester 7-C)
7.18E−06 Molar: TGI MEL-28 [1] | TGI A-549 ([2]; SRB) | TGI HELA ([3]; SRB) | TGI IGROV-ET [4] | TGI HT-29 ([5]; SRB) | TGI HELA-APL ([6]; SRB) | TGI K-562 ([7]; SRB) | TGI LOVO ([8]; SRB) | TGI PANC-1 ([9]; SRB) | TGI DU-145 [10] | TGI LOVO-DOX ([11]; SRB) | TGI IGROV [12]
3.88 µM: GI50 ([9]; SRB)
≥ 7.18 µM: GI50 [1] | CC50 [1] | GI50 ([2]; SRB) | CC50 ([2]; SRB) | GI50 ([3]; SRB) | CC50 ([3]; SRB) | GI50 [4] | CC50 [4] | GI50 ([5]; SRB) | CC50 ([5]; SRB) | GI50 ([6]; SRB) | CC50 ([6]; SRB) | GI50 ([7]; SRB) | CC50 ([7]; SRB) | GI50 ([8]; SRB) | CC50 ([8]; SRB) | CC50 ([9]; SRB) | GI50 [10] | LC50 (concentration causing 50% net cell kill) [10] | GI50 ([11]; SRB) | CC50 ([11]; SRB) | GI50 [12] | LC50 (concentration causing 50% net cell killing) [12]

C/C=C1\NC(=O)[C@H](Cc2ccccc2)NC(=O)[C@@H](C(C)C)NC(=O)[C@@H]([C@@H](C)CC)NC(=O)[C@H](NC(=O)[C@H](NC(=O)[C@H](CCCN)NC(=O)[C@H]2CCCN2C(=O)[C@H](NC(=O)[C@@H](NC(=O)[C@H](CCC(N)=O)NC(=O)[C@H](NC(=O)CCCC(C)C)C(C)C)C(C)C)C(C)C)[C@@H](C)CC)[C@@H](C)OC(=O)[C@H](C(C)C)NC1=O [Compound 119, [Gln^12]-KF] ({Hexanoyl(5-Me)}-[dV]QV[dV][dP][Orn][d(aIle)][d(aThr)][d(aIle)][dV]F[Dhb]V; ester 8-C)
5.34E−07 Molar: TGI SK-BR-3 [13]
1.35E−06 Molar: TGI HT-29 ([5]; HT-29)
1.99E−06 Molar: TGI MEL-28 ([1]; MEL-28) | TGI A-549 ([2]; A-549) | TGI HELA-APL ([6]; HELA-APL) | TGI K-562 ([7]; K-562) | TGI PANC-1 ([9]; PANC-1) | TGI DU-145 ([10]; DU-145)
1.37E−06 Molar: TGI IGROV-ET ([4]; IGROV-ET)
1.99 µM: GI50 ([1]; MEL-28) | CC50 ([1]; MEL-28) | GI50 ([2]; A-549) | CC50 ([2]; A-549) | CC50 ([3]; HELA) | CC50 ([4]; IGROV-ET) | CC50 ([5]; HT-29) | GI50 ([6]; HELA-APL) | CC50 ([6]; HELA-APL) | GI50 ([7]; K-562) | CC50 ([7]; K-562) | GI50 ([9]; PANC-1) | CC50 ([9]; PANC-1) | GI50 ([10]; DU-145) | LC50 (concentration causing 50% net cell kill) ([10]; DU-145) | CC50 ([11]; LOVO-DOX)
1.16E−06 Molar: TGI LOVO-DOX ([11]; LOVO-DOX)
1.74 µM: LC50 (concentration causing 50% net cell killing) ([12]; IGROV)
1.07E−06 Molar: TGI IGROV ([12]; IGROV)
0.764 µM: GI50 ([4]; IGROV-ET)
0.864 µM: GI50 ([5]; HT-29)
0.651 µM: GI50 ([12]; IGROV)
1.56 µM: LC50 [13]
0.379 µM: GI50 ([3]; HELA)
0.591 µM: GI50 ([11]; LOVO-DOX)
0.258 µM: GI50 [13]
6.64E−07 Molar: TGI HELA ([3]; HELA)
